# Assays:
# ATM kinase = target: T1, ATM kinase (Homo sapiens, UniProt Q13315); experiment: Assay a): ATM cellular potency (pATM Ser1981 in irradiated HT29 cells); assay type: cell-based; conditions: HT29 cells, X-ray irradiation, pATM Ser1981; Table 2; read-out: Assay a) ATM Cell IC50
# T1 construct: endogenous in cells; host or cells: HT29 cells (ECACC #85061109)
# Method: Most ATM molecules in the cell are rapidly phosphorylated on this site after doses of radiation as low as 0.5 Gy, and binding of a phosphospecific antibody is detectable after the introduction of only a few DNA double-strand breaks in the cell.
# The rationale of the p ATM assay is to identify inhibitors of ATM in cells. HT29 cells are incubated with test compounds for 1 hr prior to X-ray-irradiation. 1 h later the cells are fixed and stained for p ATM (Ser1981). The fluorescence is read on the arrayscan imaging platform.
# The following morning compounds of Formula (I) in 100% DMSO were added to assay plates by acoustic dispensing. After 1 h incubation at 37° C. and 5% CO2, plates (up to 6 at a time) were irradiated using the X-RAD 320 instrument (PXi) with equivalent to ˜600cGy. Plates were returned to the incubator for a further 1 h. […] Then 20 μl of 0.1% Triton X100 in PBS was added and incubated for 20 minutes at r.t., to permeabalise cells. Then the plates were washed once with […] PBS, using a Biotek EL405 plate washer.
# After 1 h incubation at r.t., the plates were washed three times with 50 μl/well PBS, using a Biotek EL405 plate washer, and plates were sealed and kept in PBS at 4° C. until read. Plates were read using an ArrayScan VTI instrument, using an XF53 filter with 10× objective.
# ATR kinase = target: T2, ATR kinase (Homo sapiens, UniProt Q13535); experiment: Assay b): ATR cellular potency (pChk1 Ser345 in HT29 cells after 4NQO); assay type: cell-based; conditions: HT29 cells, 4NQO, pChk1 Ser345; Table 2; read-out: Assay b) ATR Cell IC50
# T2 construct: endogenous in cells; host or cells: HT29 cells (ECACC #85061109)
# Method: ATR is a PI 3-kinase-related kinase which phosphorylates multiple substrates on serine or threonine residues in response to DNA damage during or replication blocks. Chk1, a downstream protein kinase of ATR, plays a key role in DNA damage checkpoint control. Activation of Chk1 involves phosphorylation of Ser317 and Ser345 (the latter regarded as the preferential target for phosphorylation/activation by ATR).
# The following morning compound of Formula (I) in 100% DMSO were added to assay plates by acoustic dispensing. After 1 h incubation at 37° C. and 5% CO2, 40 nl of 3 mM 4NQO in 100% DMSO was added to all wells by acoustic dispensing, except minimum control wells which were left untreated with 4NQO to generate a null response control. Plates were returned to the incubator for a further 1 h. […] Then 20 μl of 0.1% Triton X100 in PBS was added and incubated for 10 minutes at r.t., to permeabalise cells. Then the plates were washed once with 50 μl/well PBS, using a Biotek EL405 plate washer.
# After 2 h incubation at r.t., the plates were washed three times with 50 μl/well PBS, using a Biotek EL405 plate washer, and plates were then sealed with black plate seals until read. Plates were read using an ArrayScan VTI instrument, using an XF53 filter with 10× objective.
# T1 sequence (Q13315 whole entry): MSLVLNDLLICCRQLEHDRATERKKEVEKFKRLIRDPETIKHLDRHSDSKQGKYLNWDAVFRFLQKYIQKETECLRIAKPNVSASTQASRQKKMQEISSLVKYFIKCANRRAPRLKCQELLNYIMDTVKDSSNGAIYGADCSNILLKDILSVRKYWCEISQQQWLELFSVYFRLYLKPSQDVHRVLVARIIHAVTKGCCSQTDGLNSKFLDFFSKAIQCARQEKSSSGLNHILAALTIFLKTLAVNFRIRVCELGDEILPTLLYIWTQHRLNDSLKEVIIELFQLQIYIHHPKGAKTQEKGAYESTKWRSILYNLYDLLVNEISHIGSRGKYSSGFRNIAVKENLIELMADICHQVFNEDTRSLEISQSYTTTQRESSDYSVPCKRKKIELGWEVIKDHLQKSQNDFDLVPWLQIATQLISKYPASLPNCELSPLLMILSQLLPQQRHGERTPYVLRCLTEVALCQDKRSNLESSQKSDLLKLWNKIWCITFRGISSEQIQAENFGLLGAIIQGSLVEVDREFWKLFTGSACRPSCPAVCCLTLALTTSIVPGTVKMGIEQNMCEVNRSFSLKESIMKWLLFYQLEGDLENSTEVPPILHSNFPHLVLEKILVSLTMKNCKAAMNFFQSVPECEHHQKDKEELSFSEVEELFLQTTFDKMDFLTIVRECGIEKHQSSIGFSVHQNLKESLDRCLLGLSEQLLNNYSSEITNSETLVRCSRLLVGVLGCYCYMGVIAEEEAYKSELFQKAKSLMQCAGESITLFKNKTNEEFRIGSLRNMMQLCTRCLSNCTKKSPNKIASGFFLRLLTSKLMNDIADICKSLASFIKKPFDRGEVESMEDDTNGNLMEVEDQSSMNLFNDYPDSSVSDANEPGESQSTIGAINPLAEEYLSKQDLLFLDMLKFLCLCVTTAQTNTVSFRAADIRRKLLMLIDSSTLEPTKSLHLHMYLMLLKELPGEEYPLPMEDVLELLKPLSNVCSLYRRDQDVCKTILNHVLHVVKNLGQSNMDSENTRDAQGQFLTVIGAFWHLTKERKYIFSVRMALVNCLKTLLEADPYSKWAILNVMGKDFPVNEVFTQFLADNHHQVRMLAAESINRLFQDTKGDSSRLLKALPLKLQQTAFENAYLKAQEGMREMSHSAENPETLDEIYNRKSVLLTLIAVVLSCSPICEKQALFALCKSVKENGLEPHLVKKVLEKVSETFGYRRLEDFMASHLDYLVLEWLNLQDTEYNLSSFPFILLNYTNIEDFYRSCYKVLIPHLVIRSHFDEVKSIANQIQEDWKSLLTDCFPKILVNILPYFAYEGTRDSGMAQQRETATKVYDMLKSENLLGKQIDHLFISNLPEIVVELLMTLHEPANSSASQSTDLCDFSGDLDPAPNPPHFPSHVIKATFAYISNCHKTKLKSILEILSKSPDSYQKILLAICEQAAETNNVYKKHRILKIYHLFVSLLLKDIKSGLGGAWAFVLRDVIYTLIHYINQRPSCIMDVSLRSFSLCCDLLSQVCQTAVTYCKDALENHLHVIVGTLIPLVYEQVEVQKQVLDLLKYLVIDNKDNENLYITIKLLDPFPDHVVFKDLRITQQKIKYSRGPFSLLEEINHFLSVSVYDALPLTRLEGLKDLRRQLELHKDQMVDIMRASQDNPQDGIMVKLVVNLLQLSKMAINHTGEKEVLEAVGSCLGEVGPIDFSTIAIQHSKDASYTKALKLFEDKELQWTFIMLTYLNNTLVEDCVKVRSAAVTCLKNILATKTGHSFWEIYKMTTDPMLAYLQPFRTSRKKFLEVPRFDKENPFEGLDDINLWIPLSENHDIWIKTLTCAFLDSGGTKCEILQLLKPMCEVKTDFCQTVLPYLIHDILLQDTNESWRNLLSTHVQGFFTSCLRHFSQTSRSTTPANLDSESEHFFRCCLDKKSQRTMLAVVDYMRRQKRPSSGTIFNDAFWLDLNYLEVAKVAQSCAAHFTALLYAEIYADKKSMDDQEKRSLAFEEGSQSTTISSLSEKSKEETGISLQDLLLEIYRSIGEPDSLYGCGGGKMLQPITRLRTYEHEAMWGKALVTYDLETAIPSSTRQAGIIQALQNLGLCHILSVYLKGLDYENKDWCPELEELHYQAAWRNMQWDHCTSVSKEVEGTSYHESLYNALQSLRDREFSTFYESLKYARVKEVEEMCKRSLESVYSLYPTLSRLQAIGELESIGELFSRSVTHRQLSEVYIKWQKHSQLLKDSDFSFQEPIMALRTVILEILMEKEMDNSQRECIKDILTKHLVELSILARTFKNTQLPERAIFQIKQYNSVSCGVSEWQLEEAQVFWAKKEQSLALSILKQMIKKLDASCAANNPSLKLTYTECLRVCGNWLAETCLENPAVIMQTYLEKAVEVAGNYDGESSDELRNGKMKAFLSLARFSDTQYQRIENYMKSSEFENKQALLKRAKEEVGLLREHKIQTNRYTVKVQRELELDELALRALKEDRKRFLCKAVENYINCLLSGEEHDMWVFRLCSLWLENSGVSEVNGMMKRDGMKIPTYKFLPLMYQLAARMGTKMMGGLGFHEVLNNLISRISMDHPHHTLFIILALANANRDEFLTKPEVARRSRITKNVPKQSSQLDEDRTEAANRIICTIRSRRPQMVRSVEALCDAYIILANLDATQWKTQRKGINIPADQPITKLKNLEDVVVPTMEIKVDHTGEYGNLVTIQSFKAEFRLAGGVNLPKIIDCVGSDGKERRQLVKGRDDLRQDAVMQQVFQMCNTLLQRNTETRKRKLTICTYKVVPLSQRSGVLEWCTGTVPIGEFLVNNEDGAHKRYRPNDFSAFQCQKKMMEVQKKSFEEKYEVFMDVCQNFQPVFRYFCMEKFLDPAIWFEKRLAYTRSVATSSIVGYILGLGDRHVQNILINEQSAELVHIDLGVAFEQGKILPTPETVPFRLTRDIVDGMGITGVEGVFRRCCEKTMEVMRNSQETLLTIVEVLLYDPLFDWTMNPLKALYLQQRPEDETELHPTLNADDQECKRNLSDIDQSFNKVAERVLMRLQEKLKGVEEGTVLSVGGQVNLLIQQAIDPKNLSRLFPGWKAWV
IC50 (ATM kinase) [nM],IC50 (ATR kinase) [nM],SMILES
2.37,> 30000,"CO[C@@H]1CCC[C@H](n2c(=O)n(C)c3cnc4ccc(-c5ccc(OCCCN(C)C)cc5)cc4c32)C1 (relative stereo) [Example 32, 8-[4-[3-(dimethylamino)propoxy]phenyl]-1-[cis-3-methoxycyclohexyl]-3-methyl-imidazo[4,5-c]quinolin-2-one]"
2.29,19200,"CO[C@@H]1CCC[C@H](n2c(=O)n(C)c3cnc4ccc(-c5ccc(OCCCN6CCCC6)cc5)cc4c32)C1 (relative stereo) [Example 38, 1-[cis-3-methoxycyclohexyl]-3-methyl-8-[4-(3-pyrrolidin-1-ylpropoxy)phenyl]imidazo[4,5-c]quinolin-2-one]"
1.63,> 30000,"CO[C@H]1CC[C@H](n2c(=O)n(C)c3cnc4cc(F)c(-c5ccc(OCCCN(C)C)cc5)cc4c32)C1 (single isomer, unassigned) [Example 13, 8-[4-[3-(dimethylamino)propoxy]phenyl]-7-fluoro-1-[trans-3-methoxycyclopentyl]-3-methyl-imidazo[4,5-c]quinolin-2-one]"
1.37,> 29400,"CO[C@@H]1CC[C@@H](n2c(=O)n(C)c3cnc4cc(F)c(-c5ccc(OCCCN(C)C)cc5)cc4c32)C1 (single isomer, unassigned) [Example 14, 8-[4-[3-(dimethylamino)propoxy]phenyl]-7-fluoro-1-[trans-3-methoxycyclopentyl]-3-methyl-imidazo[4,5-c]quinolin-2-one]"
0.285,11300,"CO[C@H]1CCC[C@H](n2c(=O)n(C)c3cnc4ccc(-c5ccc(OCCCN(C)C)cc5)cc4c32)C1 (single isomer, unassigned) [Example 28, 8-[4-[3-(dimethylamino)propoxy]phenyl]-1-[trans-3-methoxycyclohexyl]-3-methyl-imidazo[4,5-c]quinolin-2-one]"
1.64,12800,"CO[C@H]1CCC[C@H](n2c(=O)n(C)c3cnc4ccc(-c5ccc(OCCCN(C)C)cc5)cc4c32)C1 (single isomer, unassigned) [Example 29, 8-[4-[3-(dimethylamino)propoxy]phenyl]-1-[trans-3-methoxycyclohexyl]-3-methyl-imidazo[4,5-c]quinolin-2-one]"
0.706,10900,"CO[C@H]1CCC[C@H](n2c(=O)n(C)c3cnc4ccc(-c5ccc(OCCCN6CCCC6)cc5)cc4c32)C1 (single isomer, unassigned) [Example 31, 1-[trans-3-methoxycyclohexyl]-3-methyl-8-[4-(3-pyrrolidin-1-ylpropoxy)phenyl]imidazo[4,5-c]quinolin-2-one]"
5.77,> 30000,"CO[C@@H]1CC[C@H](n2c(=O)n(C)c3cnc4cc(F)c(-c5ccc(OCCCN(C)C)cc5)cc4c32)C1 (single isomer, unassigned) [Example 36, 8-[4-[3-(dimethylamino)propoxy]phenyl]-7-fluoro-1-[cis-3-methoxycyclopentyl]-3-methyl-imidazo[4,5-c]quinolin-2-one]"
–,> 30000,"CC(C)n1c(=O)n(C)c2cnc3ccc(-c4ccc(OCCCN(C)C)cc4)cc3c21 [Example 1, 8-[4-[3-(Dimethylamino)propoxy]phenyl]-1-isopropyl-3-methyl-imidazo[4,5-c]quinolin-2-one]"
0.984,> 30000,"CC(C)n1c(=O)n(C)c2cnc3ccc(-c4ccc(OCCCN5CCCC5)cc4)cc3c21 [Example 2, 1-isopropyl-3-methyl-8-[4-(3-pyrrolidin-1-ylpropoxy)phenyl]imidazo[4,5-c]quinolin-2-one]"
0.173,> 30000,"CC(C)n1c(=O)n(C)c2cnc3ccc(-c4ccc(OCCCN5CCC5)cc4)cc3c21 [Example 3, 8-[4-[3-(azetidin-1-yl)propoxy]phenyl]-1-isopropyl-3-methyl-imidazo[4,5-c]quinolin-2-one]"
3.92,> 30000,"CN(C)CCCOc1ccc(-c2cc3c(cc2F)ncc2c3n([C@H]3CCCOC3)c(=O)n2C)cc1 [Example 10, 8-[4-[3-(dimethylamino)propoxy]phenyl]-7-fluoro-3-methyl-1-[(3S)-tetrahydropyran-3-yl]imidazo[4,5-c]quinolin-2-one]"
0.797,> 26000,"Cn1c(=O)n([C@@H]2CCCOC2)c2c3cc(-c4ccc(OCCCN5CCCC5)cc4)ccc3ncc21 [Example 16, 3-methyl-8-[4-(3-pyrrolidin-1-ylpropoxy)phenyl]-1-[(3R)-tetrahydropyran-3-yl]imidazo[4,5-c]quinolin-2-one]"
0.458,> 10000,"CO[C@H]1CC[C@H](n2c(=O)n(C)c3cnc4ccc(-c5ccc(OCCCN6CCCC6)cc5)cc4c32)CC1 [Example 22, 1-(trans-4-methoxycyclohexyl)-3-methyl-8-[4-(3-pyrrolidin-1-ylpropoxy)phenyl]imidazo[4,5-c]quinolin-2-one]"
0.467,> 30000,"CO[C@H]1CC[C@H](n2c(=O)n(C)c3cnc4ccc(-c5ccc(OCCCN(C)C)cc5)cc4c32)CC1 [Example 26, 8-[4-[3-(dimethylamino)propoxy]phenyl]-1-(trans-4-methoxycyclohexyl)-3-methyl-imidazo[4,5-c]quinolin-2-one]"
0.492,> 18500,"CO[C@H]1CC[C@@H](n2c(=O)n(C)c3cnc4ccc(-c5ccc(OCCCN6CCCC6)cc5)cc4c32)CC1 [Example 27, 1-(cis-4-methoxycyclohexyl)-3-methyl-8-[4-(3-pyrrolidin-1-ylpropoxy)phenyl]imidazo[4,5-c]quinolin-2-one]"
0.349,–,"CO[C@H]1CC[C@H](n2c(=O)n(C)c3cnc4ccc(-c5ccc(OCCCN6CCCCC6)cc5)cc4c32)C1 [Example 40, 1-[(1S,3S)-3-methoxycyclopentyl]-3-methyl-8-[4-[3-(1-piperidyl)propoxy]phenyl]imidazo[4,5-c]quinolin-2-one]"
0.23,> 28800,"CO[C@H]1C[C@@H](n2c(=O)n(C)c3cnc4ccc(-c5ccc(OCCCN6CCCC6)cc5)cc4c32)C1 [Example 41, 1-(cis-3-methoxycyclobutyl)-3-methyl-8-[4-(3-pyrrolidin-1-ylpropoxy)phenyl]imidazo[4,5-c]quinolin-2-one]"
2,16800,"Cn1c(=O)n(C2CCOCC2)c2c3cc(-c4ccc(OCCCN5CCCC5)cc4)c(F)cc3ncc21 [Example 46, 7-fluoro-3-methyl-8-[4-(3-pyrrolidin-1-ylpropoxy)phenyl]-1-tetrahydropyran-4-yl-imidazo[4,5-c]quinolin-2-one]"

# From US20180318287A1, “Imidazo[4,5-c]quinolin-2-one Compounds and Their Use in Treating Cancer” (ASTRAZENECA AB, priority 2015, published 2018)
